Holding throughout (assay type): cell-based
In one assay the test system is U937 (FLT3 wild-type). Kind of assay: In vitro growth inhibition (GI50), U937. Particulars: Homo sapiens, U-937; Cell lines of leukemia; read-out: GI 50 U937 FLT 3(WT).
The next assay relates to NCI-H1993 (c-MET amp). Kind of assay: In vitro growth inhibition (GI50), NCI-H1993. Particulars: Homo sapiens, H1993, cMET Amp+. The source says:
Tumor cell line is an effective cell model for studying the inhibition of tumor cell growth or proliferation in vitro. In the present invention, a representative tumor cell line was selected to determine the cell growth inhibition activity of the present compound. All cell lines used were from ATCC, DSMZ, and the Cell Bank of the Chinese Academy of Sciences. Cell culture conditions and methods were in accordance with the requirements of each cell line. Cells were subcultured in vitro for no more than 3 passages each time, and as required, single-clone purification and identification of cell lines could be carried out.
The cell culture media used were RPMI1640 (Gibco), MEM (Gibco), McCOY'S5A (Gibco), and IMDM (Gibco). The complete medium was prepared by supplement with 5˜20% fetal calf serum (Gibco), 1% double-antibiotics (10000 units/mL penicillin and 10000 units/mL), 2 mM glutamine or 1 mM sodium pyruvate, respectively.
The human gastric cancer cell line MKN-45 (c-MET amp, ATCC) and the non-small cell lung cancer cell line NCI-H1993 (c-MET amp, ATCC) were cultured in complete medium comprising 1×RPMI1640 and 10% FBS, respectively.
Adherent cells were digested with 0.25% pancreatin-EDTA (Gibco). The suspension cells were collected by centrifugation. The supernatant was discarded and the cell pellet was resuspended and counted. Different cell concentrations (5˜10×10^4 cells/mL) were prepared according to the growth cycle of each cell line and then seeded on a 96-well plate (Corning), 100 μL/well. The cells were incubated overnight at 37° C., 5% CO2. The compounds were added to the cells on the second day with 2 wells in parallel. The final concentration of organic solvent shall not exceed 1%. The cells were continually incubated for 3 to 5 days, and then subjected to MTT assay.
The compound of the present invention and the control compound were dissolved in DMSO (Sigma) respectively, with the purity of more than 98%. The compound was stored in a concentration of 10 mM at −20° C. and diluted to 2- or 10-fold series prior to use.
Dojindo CCK8 reagent kit was used as MTT assay. THERMO […] FC meter was used as microplate reader.
For adherent cells, culture medium was removed and immediately replaced with the fresh prepared medium which contains 10% CCK8 reagent (100 μL/well). For the suspension cells, CCK8 was directly added to 10% of the final concentration. The cells were continually incubated for 1˜4 h. When a dark yellow color could be observed in the solvent control wells, the absorbance value at OD450 nm was measured and the cell growth rate was calculated according to the following formula: Cell Growth Rate (%)=100*(T−T0)/(C−T0) T=optical density of drug treatment cell well—optical density of blank control well; T0=optical density of cell well before drug treatment—optical density of blank control well; C=optical density of cell well of solvent control group—optical density of blank control well. The concentration value of 50% inhibition of cell growth (GI50) was calculated according to the drug concentration and cell growth rate curve. The experiment was independently repeated 1˜3 times, and subject to biological statistical analysis. 4. Experimental Results
Tumor cell growth inhibition test was performed by selecting representative compounds (compounds 4, 11, 12, 16, 27, 68, 71, 77, 79, 89 and 116 of the present invention). The initial concentration of the compound was 5,000 nM, then it was serially diluted by 2-fold or 10-fold to 0.01 nM. The GI50 value of each test compound was calculated according to the GI50 assay and calculation method. The experiments were repeated 1 to 3 times, and data were subjected to biological statistical analysis.

In assay [1] the test system is K562 (FLT3 negative expression, positive expression of BCR-ABL fusion protein). Kind of assay: In vitro growth inhibition (GI50), K562. The following applies: Homo sapiens, Cell lines of leukemia, read-out: GI 50 K562 BCR-ABL.

Regarding `CC(C)(C)c1cc(NC(=O)Nc2ccc(-n3cnc4cc(OCCN5CCOCC5)ccc43)cc2)[nH]n1` [Compound 89, 1-(5-tert-butyl-2H-pyrazol-3-yl)-3-{4-[5-(2-morpholin-4-yl-ethoxyl)-benzimidazol-1-yl]-phenyl}-urea], the figures for the GI50 (in the assay on U937 (FLT3 wild-type); with NCI-H1993 (c-MET amp); in assay [1]) were over 1000 nM, over 2500 nM and over 1000 nM, respectively.

Turning to `CC(C)(C)c1cc(NC(=O)Nc2ccc(-n3cnc4cc(O)ccc43)cc2)no1` [Compound 4, 1-(5-tert-butyl-isoxazol-3-yl)-3-[4-(5-hydroxy-benzimidazol-1-yl)-phenyl]-urea], the values for the GI50 (in the assay on U937 (FLT3 wild-type); in the assay with NCI-H1993 (c-MET amp); in assay [1]) were 100 to 1000 nM, over 2500 nM and 100 to 1000 nM, respectively.

Turning to `CC(C)(C)c1cc(NC(=O)Nc2ccc(-n3cnc4cc(OCCO)ccc43)cc2)no1` [Compound 11, 1-(5-tert-butyl-isoxazol-3-yl)-3-{4-[5-(2-hydroxy-ethoxyl)-benzimidazol-1-yl]-phenyl]-urea], the GI50 was over 1000 nM in the assay on U937 (FLT3 wild-type), over 2500 nM in the assay with NCI-H1993 (c-MET amp) and over 1000 nM in assay [1].

For the compound `COCCOc1ccc2c(c1)ncn2-c1ccc(NC(=O)Nc2cc(C(C)(C)C)n[nH]2)cc1` [Compound 77, 1-(5-tert-butyl-2H-pyrazol-3-yl)-3-{4-[5-(2-methoxyl-ethoxyl)-benzimidazol-1-yl]-phenyl}-urea], the values for the GI50 (in the assay on U937 (FLT3 wild-type); with NCI-H1993 (c-MET amp); in assay [1]) were over 1000 nM, over 2500 nM and over 1000 nM, respectively.

`CC(C)(C)c1cc(NC(=O)Nc2ccc(-n3cnc4ccccc43)cc2)[nH]n1` [Compound 68, 1-(4-benzimidazol-1-yl-phenyl)-3-(5-tert-butyl-2H-pyrazol-3-yl)-urea]: the GI50 in the assay on U937 (FLT3 wild-type) was over 1000 nM; in the assay with NCI-H1993 (c-MET amp) it was over 2500 nM; in assay [1], over 1000 nM.

Take `CC(C)(C)c1cc(N)n(C(=O)Nc2ccc(-n3cnc4ccccc43)cc2)n1` [Compound 116, 5-amino-3-tert-butyl-pyrazol-1-carboxylic acid (4-benzimidazol-1-yl-phenyl)-amide]: the results for the GI50 (with U937 (FLT3 wild-type); in the assay on NCI-H1993 (c-MET amp); in assay [1]) were over 1000 nM, over 2500 nM and over 1000 nM, respectively.

For `CC(C)(C)c1cc(NC(=O)Nc2ccc(-n3cnc4cc(OCCN5CCOCC5)ccc43)cc2)no1` [Compound 16, 1-(5-tert-butyl-isoxazol-3-yl)-3-{4-[5-(2-morpholin-4-yl-ethoxyl)-benzimidazol-1-yl]-phenyl}-urea], the GI50 with U937 (FLT3 wild-type) was over 1000 nM; with NCI-H1993 (c-MET amp), over 2500 nM; in assay [1], over 1000 nM.

Turning to `COc1ccc2c(c1)ncn2-c1ccc(NC(=O)Nc2cc(C(C)(C)C)n[nH]2)cc1` [Compound 71, 1-(5-tert-butyl-2H-pyrazol-3-yl)-3-[4-(5-methoxyl-benzimidazol-1-yl)-phenyl]-urea], the GI50 in the assay on U937 (FLT3 wild-type) was over 1000 nM; with NCI-H1993 (c-MET amp), over 2500 nM; in assay [1], over 1000 nM.

In the case of `CC(C)(C)c1cc(NC(=O)Nc2ccc(-n3cnc4cc(OCCO)ccc43)cc2)[nH]n1` [Compound 79, 1-(5-tert-butyl-2H-pyrazol-3-yl)-3-{4-[5-(2-hydroxy-ethoxyl)-benzimidazol-1-yl]-phenyl]urea], the GI50 with U937 (FLT3 wild-type) was over 1000 nM; in the assay with NCI-H1993 (c-MET amp) it was over 2500 nM; in assay [1], over 1000 nM.

On to `CC(C)(C)c1cc(NC(=O)Nc2ccc(-n3cnc4ccc(OCCN5CCOCC5)cc43)cc2)no1` [Compound 27, 1-(5-tert-butyl-isoxazol-3-yl)-3-{4-[6-(2morpholin-4-yl-ethoxyl)-benzimidazol-1-yl]-phenyl}-urea], for which the GI50 was over 1000 nM in the assay with U937 (FLT3 wild-type), over 2500 nM with NCI-H1993 (c-MET amp) and over 1000 nM in assay [1].
